# Earlier results in publication PMC10591956 (Journal of controlled release : official journal of the …, 2023).
# Tested on: intraocular pressure (IOP)
# Settings: single intracameral injection, normotensive rabbits
compound,measurement,value
Brc1c(NC2=NCCN2)ccc2nccnc12 [brimonidine],duration of IOP reduction,7 days
